Experimental data: ChEMBL document CHEMBL1151635, “Antineoplastic agents, 105. Zephyranthes grandiflora” (1984)

What was measured:
Format in all cases: functional
[1] = test system: P388; test: Cytotoxicity against mouse P388 cells; conditions: read-out: ED50 (the source's name)
[2] = test system: P388; test: In vivo cytotoxicity against mouse P388 cells at 0.78 to 3.1 mg/kg relative to control; conditions: dose mg/kg 0.78-3.1
[3] = test system: P388; test: In vivo cytotoxicity against mouse P388 cells at 0.75 to 6 mg/kg relative to control; conditions: dose mg/kg 0.75-6
[4] = test system: P388; test: In vivo cytotoxicity against mouse P388 cells at 12.5 mg/kg relative to control

O=C1N[C@H]2[C@H](O)[C@H](O)[C@@H](O)[C@H](O)[C@@H]2c2cc3c(c(O)c21)OCO3 [PANCRATISTATIN]
EC50 [1]: < 0.01 µg/mL | T/C [2]: 135% | T/C [3]: 138% | T/C [4]: 206%
